Where two headings read alike, the source gives them in different places.

What all share (assay type): in vivo
Assay [1] has as its system Pyrenophora teres. As to the kind of experiment: Pyrenophora teres-test (barley)/preventive. The note with it: 192 h, read-out: Efficacy in %. From the text: (§1) The expected fungicidal action for a given combination of two or three active compounds can be calculated as follows, according to S. R. Colby (“Calculating Synergistic and Antagonistic Responses of Herbicide Combinations”, Weeds 1961 15, 20-22):
(§2) If • X is the efficacy when employing active compound A at an application rate of m g/ha, • Y is the efficacy when employing active compound B at an application rate of n g/ha and • E is the efficacy when employing active compounds A and B at application rates of m and n g/ha,
(§3) Here, the efficacy is determined in %. 0% means an efficacy which corresponds to that of the control, whereas an efficacy of 100% means that no infection is observed.
(§4) If the actual fungicidal action exceeds the calculated value, the action of the combination is superadditive, i.e. a synergistic effect is present. In this case, the actually observed efficacy must exceed the value calculated using the above formula for the expected efficacy (E).
Pyrenophora teres-Test (Barley)/Preventive
(§5) Solvent: 49 parts by weight of n,n-dimethylacetamid
(§6) Emulsifier: 1 part by weight of alkylaryl polyglycol ether
(§7) To produce a suitable preparation of active compound, 1 part by weight of active compound or active compound combination is mixed with the stated amounts of solvent and emulsifier, and the concentrate is diluted with water to the desired concentration.
(§8) To test for preventive activity, young plants are sprayed with the preparation of active compound or active compound combination at the stated rate of application.
After the spray coating has been dried on, the plants are sprayed with a spore suspension of Pyrenophora teres. The plants remain for 48 hours in an incubation cabinet at approximately 20° C. and a relative atmospheric humidity of approximately 100%.
The plants are placed in the greenhouse at a temperature of approximately 20° C. and a relative atmospheric humidity of approximately 80%.
The test is evaluated 8 days after the inoculation. 0% means an efficacy which corresponds to that of the control, while an efficacy of 100% means that no disease is observed.

For assay [2], the system named is Septoria tritici. The assay can be described thus: Septoria tritici-test (wheat)/preventive. The note with it: preventive spray, evaluated 21 days after inoculation.
Text: as §1, §2, §3, §4
Septoria tritici-Test (Wheat)/Preventive
as §5, §6, §7, §8
After the spray coating has been dried on, the plants are sprayed with a spore suspension of Septoria tritici. The plants remain for 48 hours in an incubation cabinet at approximately 20° C. and a relative atmospheric humidity of approximately 100% and afterwards for 60 hours at approximately 15° C. in a translucent incubation cabinet at a relative atmospheric humidity of approximately 100%.
The plants are placed in the greenhouse at a temperature of approximately 15° C. and a relative atmospheric humidity of approximately 80%.
The test is evaluated 21 days after the inoculation. 0% means an efficacy which corresponds to that of the control, while an efficacy of 100% means that no disease is observed.

Assay [3] relates to Uromyces appendiculatus. The assay can be described thus: Uromyces test (beans)/protective. The note with it: protective spray, evaluated 10 days after inoculation.
Text: as §1, §2, §3, §4
Uromyces Test (Beans)/Protective
(§9) Solvent: 24,5 parts by weight of acetone • 24,5 parts by weight of dimethylacetamide
as §6
(§10) To produce a suitable preparation of active compound, 1 part by weight of active compound is mixed with the stated amounts of solvent and emulsifier, and the concentrate is diluted with water to the desired concentration.
To test for protective activity, young plants are sprayed with the preparation of active compound at the stated rate of application. After the spray coating has dried on, the plants are inoculated with an aqueous spore suspension of the causal agent of bean rust (Uromyces appendiculatus) and then remain for 1 day in an incubation cabinet at approximately 20° C. and a relative atmospheric humidity of 100%.
(§11) The plants are then placed in a greenhouse at approximately 21° C. and a relative atmospheric humidity of approximately 90%.
(§12) The test is evaluated 10 days after the inoculation. 0% means an efficacy which corresponds to that of the control, while an efficacy of 100% means that no disease is observed.

The subject of assay [4] is Sphaerotheca fuliginea. As to the kind of experiment: Sphaerotheca test (cucumbers)/protective. The note with it: protective spray, evaluated 7 days after inoculation.
Text: as §1, §2, §3, §4
Sphaerotheca Test (Cucumbers)/Protective
as §9
(§13) Emulsifier: 1 part by weight of alkylaryl polyglycol ether […]
(§14) The test is evaluated 7 days after the inoculation. […]

The test system of assay [5] is Venturia inaequalis. The assay can be described thus: Venturia test (apples)/protective. The note with it: protective spray, evaluated 10 days after inoculation.
Text: as §1, §2, §3, §4
Venturia Test (Apples)/Protective
as §9, §6, §10
To test for protective activity, young plants are sprayed with the preparation of active compound at the stated rate of application. After the spray coating has dried on, the plants are inoculated with an aqueous conidia suspension of the causal agent of apple scab (Venturia inaequalis) and then remain for 1 day in an incubation cabinet at approximately 20° C. and a relative atmospheric humidity of 100%.
as §11, §12

Assay [6] concerns Blumeria graminis f.sp. tritici. The assay can be described thus: Blumeria test (wheat)/preventive. As to conditions: preventive spray, evaluated 7 days after inoculation.
Text: as §1, §2, §3, §4
Blumeria Test (Wheat)/Preventive
as §5, §13, §14

The mark [7] stands for this setting: barley, preventive spray, 62.5 ppm, evaluated 8 days after inoculation.

With `CO/N=C(/C1=NOCCO1)c1ccccc1Oc1ncnc(Oc2ccccc2Cl)c1F` [Ex B1 Fluoxastrobin, Fluoxastrobin], in assay [1] (setting [7]), the pest or weed control at 62.5 ppm came to 67%.

Consider `CO/N=C(/C(=O)OC)c1ccccc1CO/N=C(\C)c1cccc(C(F)(F)F)c1` [Ex B1 Trifloxystrobin, Trifloxystrobin], for which the Efficacy in % is 94% in assay [2] (62.5 ppm) and 70% in assay [3] (1 ppm).

As for `Cc1cc(O)no1` [Ex B2 Hymexazol, Hymexazol], the pest or weed control at 1000 ppm in assay [1] (barley, preventive spray, 1000 ppm, evaluated 8 days after inoculation) came to 0%.

Consider `CC(C)C1CCC(Cc2ccc(Cl)cc2)C1(O)Cn1cncn1` (stereo not drawn) [Ex B2 Ipconazole, Ipconazole], for which, in assay [1] (barley, preventive spray, 250 ppm, evaluated 8 days after inoculation), the pest or weed control at 250 ppm amounted to 33%. Moreover, the figures for the Efficacy in % in assay [4] (5 ppm) and in assay [4] (10 ppm) were 50% and 77%, respectively.

As to `C[Si](C)(C)CC(O)(Cn1cncn1)c1ccc(F)cc1` (stereo not drawn) [Ex B2 Simeconazole, Simeconazole], the Efficacy in % in assay [2] (1000 ppm) worked out at 67%; in assay [3] (5 ppm) it was 84%.

On to `Cn1cc(C(=O)Nc2ccc(F)cc2-c2ccc(Cl)c(Cl)c2)c(C(F)F)n1` [Ex B3 Bixafen, Bixafen], for which, in assay [1] (setting [7]), the pest or weed control at 62.5 ppm was 78%. In addition, in assay [5] (1 ppm), the Efficacy in % was 73%.

Turning to `N#Cc1c[nH]cc1-c1cccc2c1OC(F)(F)O2` [Ex B4 Fludioxonil, Fludioxonil], the pest or weed control at 125 ppm in assay [1] worked out at 44%. For the same molecule, the Efficacy in % is given as 26% in assay [5] (50 ppm), 30% in assay [5] (100 ppm) and 70% in assay [3] (200 ppm).

Consider `COCC(=O)N(c1c(C)cccc1C)[C@H](C)C(=O)OC` [Ex B4 Metalaxyl M, Metalaxyl M], for which the values for the Efficacy in % in assay [6] (250 ppm) and in assay [5] (200 ppm) were 0% and 29%, respectively.

For `COCC(=O)N(c1c(C)cccc1C)C(C)C(=O)OC` (stereo not drawn) [Ex B4 Metalaxyl, Metalaxyl], the Efficacy in % in assay [2] (1000 ppm) is given as 33%.

With `CCCN(CCOc1c(Cl)cc(Cl)cc1Cl)C(=O)n1ccnc1` [Ex B4 Prochloraz, Prochloraz], the pest or weed control at 62.5 ppm in assay [1] was found to be 89%.

On to `N#Cc1ccccc1NC(=O)c1snc(Cl)c1Cl` [Ex I-2], for which, in assay [1], the pest or weed control at 250 ppm worked out at 0%. Also, the pest or weed control at 1000 ppm in assay [1] turned out to be 11%. In addition, the Efficacy in % is listed as 0% in assay [2] (1000 ppm); 22% in assay [6] (1000 ppm); 0% in assay [5] (50 ppm); 19% in assay [5] (100 ppm); 37% in assay [5] (200 ppm); 8% in assay [3] (50 ppm). The Efficacy in % in assay [3] (100 ppm) is 0%; in assay [3] (200 ppm) it was 15%.

`Cc1nn(C)c(F)c1C(=O)Nc1ccccc1C(C)CC(C)C` (stereo not drawn) [N-[2-(1,3-Dimethylbutyl)phenyl]-5-fluor-1,3-dimethyl-1H-pyrazole-4-carboxamide]: the pest or weed control at 62.5 ppm in assay [1] (setting [7]) was determined as 89%.
